Measurements published in EP4711365A1 (Shanghai Hansoh Biomedical Co., Ltd., priority 2023, dated 2024).

Key:
[1] = molecular target: T1, human IL-17RA and IL-17A proteins (Homo sapiens, UniProt Q16552); experiment: Competitive ELISA: blocking of binding between human IL-17RA and IL-17A; conditions: coated IL-17A, IL-17RA 5 nM
T1 sequence (Q16552 24-155): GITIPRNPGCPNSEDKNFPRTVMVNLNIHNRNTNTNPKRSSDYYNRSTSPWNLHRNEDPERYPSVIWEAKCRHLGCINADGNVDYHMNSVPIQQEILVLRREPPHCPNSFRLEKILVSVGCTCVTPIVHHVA
Method: Test example 1 Assay for competitive binding effect between compounds of the present invention and human IL-17 receptor for ligand
1. Experimental objective: to quantitatively determine the blocking effect of the compound on the binding between human IL-17RA and IL-17A proteins using competitive ELISA under in vitro conditions. 2. Experimental instruments and reagents: 2.1 Instruments:
2.2 Reagents: 3. Experimental method: IL-17A at 0.0625 µg/mL was coated in a 96-well plate at 4°C overnight at 100 µL per well. The plate was washed with PBST (300 µL/well x 4), and then blocked at 24°C for 2 h by adding 300 µL of ELISA Blocker blocking buffer to each well. The plate was further washed under the same conditions. 80 µL of PBS solution containing 1% BSA and 10 µL of 10× test compound solution were added to each well and mixed uniformly, and then the mixture was incubated at room temperature for 1 hour. After that, 10 µL of IL-17RA solution was added to a final concentration of 5 nM and mixed uniformly, and then the mixture was incubated at 24°C for 1 h. The corresponding concentration and volume of DMSO solution without compounds was added to positive control wells, and 1% BSA solution without IL-17RA was added to negative control wells.
After the plate was washed four times, 100 µL of the anti-Fc tag HRP-conjugated antibody was added, and the mixture was incubated at 37°C for 1 h. After the plate was washed four times, 100 µL of TMB substrate was added to each well, and the mixture was incubated at 37°C in the dark. After colour development was completed, the reaction was terminated by adding 100 µL of stop solution to each well, and the absorbance was measured at wavelengths of 450 nm and 570 nm using a microplate reader.
• 1) Inhibition rate (%): The original data (OD450-OD570) was calculated according to the following formula to obtain the inhibition rate. Inhibition rate% = [(average value of positive control wells - value of sample wells)/(average value of positive control wells - average value of negative control wells)] × 100, where the positive control wells are wells without compounds, and the negative control wells are wells without IL-17RA protein solution. • 2) Curve fitting: Log(inhibitor) vs. response -- Variable slope (four parameters) in GraphPad Prism 8 was used for fitting equation analysis of the compound concentration and the corresponding inhibition rate, and the curve was fitted to obtain the IC50 value of the compound. The fitting calculation equation was Y = Bottom + (Top - Bottom) / (1 + 10^((LogIC50 - X) * HillSlope)).

[2] = system: Groα secretion by HT-29 cells; experiment: Inhibition of Groα secretion by HT-29 cells stimulated with IL-17A (ELISA); format: cell-based, Human; conditions: Homo sapiens, IL-17A 30 ng/ml, 48 hours, Groα in supernatant
Method: Test example 2 Assay for inhibitory effect of compounds of the present invention against Groα secretion by HT-29 cells
Experimental objective: to measure the inhibitory effect of the compounds against Groα secretion by HT-29 cells, thereby evaluating the inhibition of the compounds on IL-17A pathway.
Experimental method: A cell suspension at 50,000 cells/ml was prepared, and 200 µl of the cell suspension was added to each well of a 96-well plate, i.e., 10,000 cells/well. The plate was cultured overnight. In the 96-well V-bottom plate, 5 mM compound solution was serially diluted 3-fold using DMSO, and the compound from each well was diluted 100-fold using a complete culture medium. IL-17A protein (R&D, #BT7955-025/CF) with a stock concentration of 100 µg/ml was diluted 333.33-fold using a complete culture medium. The compound and IL-17A were mixed at a volume ratio of 1:1 and incubated at 37°C for 30 minutes. 50 µl of a mixture of the compound and IL-17A was added to cell wells, and the final concentration of IL-17A protein was 30 ng/ml.
The mixture was incubated in a 37°C, 5% CO2 cell culture incubator for 48 hours. The concentration of Groα in the supernatant was determined by ELISA method using Human Groα Valukin Elisa kit (Biotechne, # VAL139), and the absorbance intensity at 450 nm was measured using a microplate reader (PE, EnVision2105). Data were analysed using GraphPad Prism 8.3.0.
Experimental data processing method: Data were analysed using GraphPad Prism 8.3.0.
Inhibition rate% = [(average value of positive control wells - value of sample wells)/(average value of positive control wells - average value of negative control wells)] × 100%, where the sample wells are wells containing cells plus compounds at different concentration gradients, the positive control wells are wells containing cells plus IL-17A, and the negative control wells are wells containing culture medium plus IL-17A.
Curve fitting: The IC50 value was obtained by curve fitting based on the inhibition rate (%) at each concentration using the log(inhibitor) vs. responseVariable slope (four parameters) in GraphPad Prism 6.0, and the calculation equation was Y = Bottom + (Top-Bottom)/(1+10^((LogIC50-X)*HillSlope)).

[3] = Pharmacokinetic assay in Wistar rats, oral; conditions: rat, plasma, 30 mg/kg
Method: Experimental objective: to study the pharmacokinetic behaviours of the compounds of the present invention in the body (plasma) of Wistar rats as test animals after oral administration at a dose of 30 mg/kg. • 2. Experimental scheme • 2.1 Test drugs: the examples of the present invention, prepared in house. • 2.2 Test animals: Wistar rats (female, 3 rats per group), from Beijing Vital River Laboratory Animal Technology Co., Ltd., with the animal production license no.
Solutol HS15 was melted in a water bath at 50-60°C, and then 50 mL of the melted Solutol HS15 was added to 450 mL of ultrapure water. The mixture was stirred and sonicated to obtain 500 mL of 10% Solutol HS15 solution. The compound was weighed, and according to the total administration volume, 30% PEG solution was first added. The mixture was shaken uniformly and sonicated until a clear solution was obtained. Subsequently, 70% (10% Solutol) in water was added, resulting in a colourless and clear solution with a concentration of 3.0 mg/mL.
2.4 Administration scheme: After overnight fasting, 3 female Wistar rats per group were administered orally (PO) at a dose of 30 mg/kg with an administration volume of 10 mL/kg.
• 1) To 50 uL of plasma sample was added 250 uL of acetonitrile for precipitation, and the mixture was mixed and then centrifuged at 4°C at 4000 rpm for 20 minutes. • 2) The treated supernatant solution was taken and subjected to LC/MS/MS to analyse the concentration of the test compounds. LC/MS/MS analysis instrument: AB Sciex API-4000 Qtrap-Shimadzu Controller-CBM20A.
• Chromatographic column: Waters Xbridge C18 3.5 um 2.1*50 mm • Mobile phase: solution A: 0.1% formic acid in water, and solution B: 0.1% formic acid in acetonitrile • Flow rate: 0.6 mL/min • Elution time: 0-3.5 minutes, with eluents as follows:

SMILES | IC50 [1] | IC50 [2] | further results
CCc1nonc1C(=O)NC(C(=O)Nc1ncc(C(COC)N2CC(C(F)(F)F)NC2=O)s1)C1CCC(C)CC1 (stereo not shown) [Example 521] | 1.3 nM | 2 nM | 
COCC(c1cnc(NC(=O)C(NC(=O)OC2CC2)C2CCC(C)CC2)s1)N1CC(C(F)(F)F)NC1=O (stereo not shown) [Example 522] | 6.2 nM |  | 
C[C@H]1CC[C@H]([C@H](NC(=O)OC2CC2)C(=O)Nc2ncc([C@@H](CC3CC3)N3CC(F)(F)CNC3=O)s2)CC1 [Example 524] | 3.6 nM | 9.3 nM | 
CCc1nonc1C(=O)N[C@H](C(=O)Nc1ncc([C@@H](C2CCOCC2)n2cc(Cl)ccc2=O)s1)[C@H]1CC[C@H](C)CC1 [Example 532] | 7.9 nM | 7.9 nM | 
[2H]C1([2H])NC(=O)N([C@H](COC)c2cnc(NC(=O)[C@@H](NC(=O)OC3CC3)[C@H]3CC[C@H](C)CC3)s2)C([2H])([2H])C1(F)F [Example 559] | 4.3 nM |  | AUC(0-t) [3]: 12700 ng·h/mL; Cmax [3]: 2190 ng/mL; Tmax [3]: 2 h; half-life [3]: 2.7 h
COC[C@H](c1cnc(NC(=O)[C@@H](NC(=O)c2nonc2C)[C@H]2CC[C@H](C)CC2)s1)n1cc(Cl)ccc1=O [Example 569] | 5 nM |  | 
COC[C@H](c1cnc(NC(=O)[C@@H](NC(=O)C2(F)CC2)[C@H]2CC[C@H](C)CC2)s1)N1CC(F)(F)CNC1=O [Example 592] | 6.4 nM |  | 
CC1CCC([C@H](NC(=O)C2(F)CC2)C(=O)Nc2ncc(C(CN3CCOCC3)N3CC(F)(F)CNC3=O)s2)CC1 (stereo partly shown) [Example 601] | 4.1 nM | 7.5 nM | 
[2H]C1([2H])NC(=O)N([C@H](COC)c2cnc(NC(=O)[C@@H](NC(=O)C3(F)CC3)[C@H]3CC[C@H](C)CC3)s2)C([2H])([2H])C1(F)F [Example 688, N-((S)-2-((5-((R)-1-(5,5-difluoro-2-carbonyltetrahydropyrimidin-1(2H)-yl-4,4,6,6-d4)-2-methoxyethyl)thiazol-2-yl)amino)-1-((1r,4S)-4-methylcyclohexyl)-2-carbonylethyl)-1-fluorocyclopropane-1-carboxamide] | 5.1 nM |  | 
C[C@H]1CC[C@H]([C@H](NC(=O)C2(F)CC2)C(=O)Nc2ncc([C@@H](CN3CCO[C@H](CF)C3)N3CC(F)(F)CNC3=O)s2)CC1 [Example 696, N-((S)-2-((5-((R)-1-(5,5-difluoro-2-oxotetrahydropyrimidin-1(2H)-yl)-2-((S)-2-(fluoromethyl)morpholino)ethyl)thiazol-2-yl)amino)-1-((1r,4S)-4-methylcyclohexyl)-2-oxoethyl)-1-fluorocyclopropane-1-carboxamide] | 5 nM | 2 nM | 
C[C@H]1CC[C@H]([C@H](NC(=O)C(F)(F)C2CC2)C(=O)Nc2ncc([C@@H](CN3CCO[C@H](CF)C3)N3CC(F)(F)CNC3=O)s2)CC1 [Example 700] | 3.4 nM | 2.6 nM | 
C[C@H]1CC[C@H]([C@H](NC(=O)C2(F)CC2)C(=O)Nc2ncc([C@@H](CN3CCO[C@@H](CF)C3)N3CC(F)(F)CNC3=O)s2)CC1 [Example 703] | 7.5 nM | 7 nM | 
CC[C@@H]1CN(C[C@H](c2cnc(NC(=O)[C@@H](NC(=O)C3(F)CC3)[C@H]3CC[C@H](C)CC3)s2)N2CC(F)(F)CNC2=O)CCO1 [Example 704] | 4.9 nM | 6.5 nM | 
CC1(C)CN(C[C@H](c2cnc(NC(=O)[C@@H](NC(=O)C3(F)CC3)[C@H]3CC[C@H](C)CC3)s2)N2CC(F)(F)CNC2=O)CCO1 [Example 718] | 5 nM | 8 nM | 
C[C@H]1CC[C@H]([C@H](NC(=O)C2(F)CC2)C(=O)Nc2ncc([C@@H](CN3CCOC4(CC4)C3)N3CC(F)(F)CNC3=O)s2)CC1 [Example 721] | 4 nM |  | 
CC1(C)COCCN1C[C@H](c1cnc(NC(=O)[C@@H](NC(=O)C2(F)CC2)[C@H]2CC[C@H](C)CC2)s1)N1CC(F)(F)CNC1=O [Example 723] | 5 nM | 4 nM | 
C[C@H]1CN(C[C@H](c2cnc(NC(=O)[C@@H](NC(=O)C3(F)CC3)[C@H]3CC[C@H](C)CC3)s2)N2CC(F)(F)CNC2=O)C[C@H](C)O1 [Example 730] | 6.7 nM |  | 
